Experimental data: patent US12503484B2, “Androstane derivatives with activity as pure or predominantly pure stimulators of SERCA2a for the treatment of heart failure” (Seismic Pharmaceuticals, priority 2019, dated 2025)
Structures can show the parent of a compound that is named as a salt.

Key:
[1] = test system: STZ diabetic rats; assay: Haemodynamics in streptozotocin diabetic rats (echocardiography); type: in vivo, rat
Procedure: CVie214 and CVie216 were tested in a diabetic rat model. Briefly, rats were injected with streptozotocin (STZ). After 7-9 weeks from STZ injection, rats were submitted to transthoracic echocardiographic and Doppler evaluation performed under urethane anesthesia. Two-dimensionally guided M-mode recordings were used to obtain short-axis measurements of left ventricular end-diastolic diameter (LVEDD), left ventricular end-systolic diameter (LVESD), posterior (PW) and septal (SW) diastolic wall thickness according to the American Society of Echocardiography guidelines (Lang R M et al., Eur J Echocardiography 2006, 7:79-108). Fractional shortening was calculated as FS=(LVEDD−LVESD)/LVEDD. Relative wall thickness was calculated as PWTd+IVSTd/LVEDD. Mitral inflow was measured by pulsed Doppler at the tips of mitral leaflets from an apical 4-chamber view to obtain early and late filling velocities (E, A) and deceleration time of early filling velocity (DT). The deceleration slope was calculated as E/DT ratio. The mitral deceleration index was calculated as DT/E ratio. Tissue Doppler Imaging (TDI) was evaluated from the apical 4-chamber view to record septal mitral annular movements, i.e., peak myocardial systolic (s′) and early and late diastolic velocity (e′ and a′).
After baseline hemodynamic measurements were taken, the rats were administered Digoxin, CVie214, CVie216 and compared to control. Digoxin, used as reference drug, was intravenously infused at 0.11 mg/kg/min for 15 min and echocardiographic parameters measured after 1 h. CVie214-salt and CVie216-salt were intravenously infused in STZ diabetic rats at 0.2 mg/kg/min and echocardiographic parameters were measured after 15 min and 30 min.
Tables 4-6 show the haemodynamic parameters in STZ diabetic rats for Digoxin, CVie214-salt, and Cvie216-salt.

[2] = test system: ATPase, Ca2+, skeletal muscle; assay: Receptor binding assay panel: ATPase, Ca2+, skeletal muscle; type: biochemical, pig; conditions: 10 μM
Procedure: (§1) Radioligand binding to a panel of receptors was carried out by Eurofins on crude membrane preparations according to published procedures and by using appropriate reference standard (Eurofin, Taiwan, compound code CVie216-3 (1226840), study #TW04-0004235, quote #TW04-0004235-Q04, for Cvie Therapeutics Limited, Taiwan). […] was tested at the concentration of 10 μM.

[3] = target: Monoamine Oxidase MAO-A (Homo sapiens (Human), UniProt P21397); assay: Receptor binding assay panel: Monoamine Oxidase MAO-A; type: biochemical
[4] = target: Monoamine Oxidase MAO-B (Homo sapiens (Human), UniProt P27338); assay: Receptor binding assay panel: Monoamine Oxidase MAO-B; type: biochemical
[5] = target: Nitric Oxide Synthase, Endothelial (eNOS) (Bos taurus (Bovine), UniProt P29473); assay: Receptor binding assay panel: Nitric Oxide Synthase, Endothelial (eNOS); type: biochemical
[6] = target: Peptidase, Angiotensin Converting Enzyme (Oryctolagus cuniculus (Rabbit), UniProt P12822); assay: Receptor binding assay panel: Peptidase, Angiotensin Converting Enzyme; type: biochemical
[7] = target: Protein Tyrosine Kinase, Src (Homo sapiens (Human), UniProt P12931); assay: Receptor binding assay panel: Protein Tyrosine Kinase, Src; type: biochemical
[8] = target: Adenosine A1 (Homo sapiens (Human), UniProt P30542); assay: Receptor binding assay panel: Adenosine A1
[9] = target: Adrenergic α1A (Rattus norvegicus (Rat), UniProt P43140); assay: Receptor binding assay panel: Adrenergic α1A
[10] = target: Adrenergic α2A (Homo sapiens (Human), UniProt P08913); assay: Receptor binding assay panel: Adrenergic α2A
Procedure: as §1

[11] = target: Angiotensin AT2 (Homo sapiens (Human), UniProt P50052); assay: Receptor binding assay panel: Angiotensin AT2
[12] = test system: Calcium Channel L-type, Dihydropyridine; assay: Receptor binding assay panel: Calcium Channel L-type, Dihydropyridine; set-up: species or system rat; conditions: 10 μM
[13] = target: Dopamine D3 (Homo sapiens (Human), UniProt P35462); assay: Receptor binding assay panel: Dopamine D3
[14] = target: Estrogen ERβ (Homo sapiens (Human), UniProt Q92731); assay: Receptor binding assay panel: Estrogen ERβ
[15] = test system: GABAA, Flunitrazepam, Central; assay: Receptor binding assay panel: GABAA, Flunitrazepam, Central; set-up: species or system rat; conditions: 10 μM
Procedure: as §1

[16] = target: Muscarinic M2 (Homo sapiens (Human), UniProt P08172); assay: Receptor binding assay panel: Muscarinic M2
Procedure: as §1

[17] = target: Muscarinic M3 (Homo sapiens (Human), UniProt P20309); assay: Receptor binding assay panel: Muscarinic M3
Procedure: as §1

[18] = target: Muscarinic M5 (Homo sapiens (Human), UniProt P08912); assay: Receptor binding assay panel: Muscarinic M5
Procedure: as §1

[19] = target: Opiate μ (OP3, MOP) (Homo sapiens (Human), UniProt P35372); assay: Receptor binding assay panel: Opiate μ (OP3, MOP)
Procedure: as §1

[20] = target: hERG potassium channel (Homo sapiens (Human), UniProt Q12809); assay: Receptor binding assay panel: Potassium Channel hERG; conditions: crude membrane preparations
Procedure: as §1

[21] = target: Ryanodine RyR3 (Rattus norvegicus, UniProt A0ABK0LPH6); assay: Receptor binding assay panel: Ryanodine RyR3
[22] = test system: Serotonin (5-Hydroxytryptamine) 5-HT1, non selective; assay: Receptor binding assay panel: Serotonin (5-Hydroxytryptamine) 5-HT1, non selective; set-up: species or system rat; conditions: 10 μM
[23] = target: Sigma σ1 (Homo sapiens (Human), UniProt Q99720); assay: Receptor binding assay panel: Sigma σ1
[24] = test system: Sodium Channel, Site 2; assay: Receptor binding assay panel: Sodium Channel, Site 2; set-up: species or system rat; conditions: 10 μM
[25] = after 15 min IV infusion 0.2 mg/kg/min
[26] = after 30 min IV infusion 0.2 mg/kg/min

Chain of Adrenergic α1A (P43140 whole entry): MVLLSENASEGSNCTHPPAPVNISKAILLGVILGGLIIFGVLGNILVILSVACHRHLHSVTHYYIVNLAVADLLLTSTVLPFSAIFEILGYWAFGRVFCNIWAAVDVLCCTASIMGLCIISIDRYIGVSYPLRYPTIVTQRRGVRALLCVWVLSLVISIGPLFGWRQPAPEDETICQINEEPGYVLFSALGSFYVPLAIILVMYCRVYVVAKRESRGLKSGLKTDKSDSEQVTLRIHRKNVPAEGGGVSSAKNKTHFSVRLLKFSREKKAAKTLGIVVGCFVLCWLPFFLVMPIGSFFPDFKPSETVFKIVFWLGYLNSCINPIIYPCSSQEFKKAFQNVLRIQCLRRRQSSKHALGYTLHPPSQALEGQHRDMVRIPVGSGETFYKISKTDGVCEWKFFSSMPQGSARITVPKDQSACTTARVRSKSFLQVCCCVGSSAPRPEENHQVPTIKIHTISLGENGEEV
Chain of Peptidase, Angiotensin Converting Enzyme (P12822 34-1310): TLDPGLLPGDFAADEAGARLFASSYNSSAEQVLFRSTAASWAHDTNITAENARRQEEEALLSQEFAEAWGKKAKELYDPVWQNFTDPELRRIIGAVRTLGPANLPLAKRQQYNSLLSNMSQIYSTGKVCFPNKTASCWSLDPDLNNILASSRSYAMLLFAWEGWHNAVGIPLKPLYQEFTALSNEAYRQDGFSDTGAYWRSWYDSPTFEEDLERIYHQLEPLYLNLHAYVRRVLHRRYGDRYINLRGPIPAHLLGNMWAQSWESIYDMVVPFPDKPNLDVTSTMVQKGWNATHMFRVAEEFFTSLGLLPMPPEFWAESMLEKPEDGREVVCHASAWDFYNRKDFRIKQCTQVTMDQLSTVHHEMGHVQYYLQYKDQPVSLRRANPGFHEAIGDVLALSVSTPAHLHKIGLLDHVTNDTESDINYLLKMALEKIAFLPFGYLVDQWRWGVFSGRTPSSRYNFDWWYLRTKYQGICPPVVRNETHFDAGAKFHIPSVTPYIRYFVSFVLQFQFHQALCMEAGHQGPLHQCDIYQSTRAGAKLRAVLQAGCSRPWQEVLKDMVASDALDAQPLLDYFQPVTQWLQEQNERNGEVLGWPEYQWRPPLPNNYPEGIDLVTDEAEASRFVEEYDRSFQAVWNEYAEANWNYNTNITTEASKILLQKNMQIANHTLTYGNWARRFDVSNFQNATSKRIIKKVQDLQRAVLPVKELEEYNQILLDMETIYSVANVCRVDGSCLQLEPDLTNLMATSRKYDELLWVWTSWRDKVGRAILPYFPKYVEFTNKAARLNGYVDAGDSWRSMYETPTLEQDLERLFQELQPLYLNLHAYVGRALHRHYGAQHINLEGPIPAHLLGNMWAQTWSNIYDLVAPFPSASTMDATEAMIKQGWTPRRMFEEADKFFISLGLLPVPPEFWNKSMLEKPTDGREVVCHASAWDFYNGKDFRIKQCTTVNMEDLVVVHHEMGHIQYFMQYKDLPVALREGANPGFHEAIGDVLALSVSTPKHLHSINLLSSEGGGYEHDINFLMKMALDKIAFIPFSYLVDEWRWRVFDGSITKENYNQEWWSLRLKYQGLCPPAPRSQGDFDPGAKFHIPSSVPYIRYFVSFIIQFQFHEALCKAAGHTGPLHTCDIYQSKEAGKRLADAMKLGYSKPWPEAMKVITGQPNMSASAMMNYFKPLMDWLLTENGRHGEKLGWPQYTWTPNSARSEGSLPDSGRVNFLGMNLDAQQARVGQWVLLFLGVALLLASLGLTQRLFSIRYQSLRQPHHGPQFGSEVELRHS
Chain of Adenosine A1 (P30542 whole entry): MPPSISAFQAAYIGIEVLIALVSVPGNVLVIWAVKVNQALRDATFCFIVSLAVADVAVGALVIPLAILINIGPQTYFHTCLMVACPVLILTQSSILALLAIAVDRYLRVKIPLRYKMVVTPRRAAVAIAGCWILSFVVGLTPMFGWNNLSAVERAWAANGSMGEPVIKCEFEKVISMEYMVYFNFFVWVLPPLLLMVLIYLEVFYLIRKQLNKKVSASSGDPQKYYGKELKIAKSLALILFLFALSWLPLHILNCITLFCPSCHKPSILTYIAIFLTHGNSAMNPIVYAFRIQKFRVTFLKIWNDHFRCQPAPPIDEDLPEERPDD
Chain of Monoamine Oxidase MAO-A (P21397 whole entry): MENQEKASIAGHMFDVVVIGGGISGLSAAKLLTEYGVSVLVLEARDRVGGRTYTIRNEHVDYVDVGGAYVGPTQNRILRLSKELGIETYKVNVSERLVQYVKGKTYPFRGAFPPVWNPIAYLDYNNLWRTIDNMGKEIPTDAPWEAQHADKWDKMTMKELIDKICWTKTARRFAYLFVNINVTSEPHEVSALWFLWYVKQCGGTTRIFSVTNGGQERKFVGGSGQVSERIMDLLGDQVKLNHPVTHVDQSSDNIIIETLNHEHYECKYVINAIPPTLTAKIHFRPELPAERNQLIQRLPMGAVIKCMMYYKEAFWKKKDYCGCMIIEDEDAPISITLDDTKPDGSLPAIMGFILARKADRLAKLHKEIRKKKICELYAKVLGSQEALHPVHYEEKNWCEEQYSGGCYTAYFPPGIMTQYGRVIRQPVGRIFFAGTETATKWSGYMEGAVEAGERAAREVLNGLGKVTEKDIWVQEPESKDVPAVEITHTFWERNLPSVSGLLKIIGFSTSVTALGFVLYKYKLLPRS
Chain of Protein Tyrosine Kinase, Src (P12931 whole entry, looked up): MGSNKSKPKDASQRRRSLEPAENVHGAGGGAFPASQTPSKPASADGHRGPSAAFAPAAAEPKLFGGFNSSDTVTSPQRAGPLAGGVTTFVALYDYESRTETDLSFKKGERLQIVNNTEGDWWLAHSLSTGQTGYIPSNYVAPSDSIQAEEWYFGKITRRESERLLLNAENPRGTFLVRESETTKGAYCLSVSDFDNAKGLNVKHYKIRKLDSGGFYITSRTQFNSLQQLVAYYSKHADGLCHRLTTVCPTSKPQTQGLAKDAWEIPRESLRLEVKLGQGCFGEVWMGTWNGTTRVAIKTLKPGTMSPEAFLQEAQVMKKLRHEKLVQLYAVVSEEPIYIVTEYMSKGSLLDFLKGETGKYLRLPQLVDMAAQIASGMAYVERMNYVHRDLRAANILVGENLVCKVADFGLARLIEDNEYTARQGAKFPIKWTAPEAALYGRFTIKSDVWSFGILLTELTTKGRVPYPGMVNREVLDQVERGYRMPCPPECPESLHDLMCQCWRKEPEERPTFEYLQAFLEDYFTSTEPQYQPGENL
Chain of Muscarinic M2 (P08172 whole entry): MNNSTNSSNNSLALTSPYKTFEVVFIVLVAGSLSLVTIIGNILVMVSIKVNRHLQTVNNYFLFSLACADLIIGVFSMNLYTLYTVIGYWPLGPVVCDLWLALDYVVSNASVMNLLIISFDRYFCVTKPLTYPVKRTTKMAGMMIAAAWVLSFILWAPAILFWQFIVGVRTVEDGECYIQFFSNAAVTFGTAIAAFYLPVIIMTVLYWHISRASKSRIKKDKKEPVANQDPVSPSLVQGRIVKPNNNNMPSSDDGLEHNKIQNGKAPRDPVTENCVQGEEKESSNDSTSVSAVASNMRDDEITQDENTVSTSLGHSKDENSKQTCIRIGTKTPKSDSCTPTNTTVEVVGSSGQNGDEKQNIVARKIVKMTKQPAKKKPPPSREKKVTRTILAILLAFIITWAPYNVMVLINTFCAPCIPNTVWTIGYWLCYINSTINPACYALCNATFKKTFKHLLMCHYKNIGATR
Chain of Angiotensin AT2 (P50052 whole entry): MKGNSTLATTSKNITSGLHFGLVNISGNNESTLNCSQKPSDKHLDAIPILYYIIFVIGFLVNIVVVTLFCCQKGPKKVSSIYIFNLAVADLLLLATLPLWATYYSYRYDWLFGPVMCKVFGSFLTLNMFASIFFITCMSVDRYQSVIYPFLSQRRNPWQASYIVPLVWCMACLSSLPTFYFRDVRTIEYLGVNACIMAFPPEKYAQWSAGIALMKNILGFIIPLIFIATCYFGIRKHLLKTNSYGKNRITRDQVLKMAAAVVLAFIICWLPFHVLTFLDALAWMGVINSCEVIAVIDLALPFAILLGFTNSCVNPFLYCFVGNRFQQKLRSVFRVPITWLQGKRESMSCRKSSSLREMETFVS
Chain of Dopamine D3 (P35462 whole entry): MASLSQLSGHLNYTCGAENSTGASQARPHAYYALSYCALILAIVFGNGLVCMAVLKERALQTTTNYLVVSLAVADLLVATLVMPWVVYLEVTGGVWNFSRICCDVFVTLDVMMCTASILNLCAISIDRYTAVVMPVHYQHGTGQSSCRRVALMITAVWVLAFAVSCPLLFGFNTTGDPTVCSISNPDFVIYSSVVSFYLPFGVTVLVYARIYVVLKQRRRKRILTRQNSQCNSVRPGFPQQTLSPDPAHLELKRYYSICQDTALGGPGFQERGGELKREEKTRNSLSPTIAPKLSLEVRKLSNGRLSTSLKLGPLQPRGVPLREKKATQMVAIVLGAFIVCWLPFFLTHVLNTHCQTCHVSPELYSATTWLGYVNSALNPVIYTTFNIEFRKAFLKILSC
Chain of Adrenergic α2A (P08913 whole entry): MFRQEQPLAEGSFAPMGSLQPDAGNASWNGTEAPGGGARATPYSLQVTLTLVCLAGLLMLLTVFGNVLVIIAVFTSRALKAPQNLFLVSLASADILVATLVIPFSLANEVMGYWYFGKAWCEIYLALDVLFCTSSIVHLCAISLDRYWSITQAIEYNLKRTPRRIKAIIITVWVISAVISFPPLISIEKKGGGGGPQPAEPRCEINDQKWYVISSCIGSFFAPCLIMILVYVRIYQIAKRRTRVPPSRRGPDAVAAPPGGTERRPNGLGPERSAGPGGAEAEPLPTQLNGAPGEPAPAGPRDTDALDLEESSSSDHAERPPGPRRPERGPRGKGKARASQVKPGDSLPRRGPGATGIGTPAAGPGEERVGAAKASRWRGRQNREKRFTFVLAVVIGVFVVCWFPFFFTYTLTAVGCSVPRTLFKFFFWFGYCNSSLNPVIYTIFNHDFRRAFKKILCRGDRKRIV

Q: Which results are given for `C[C@]12CC[C@H](CC(=O)O)CC1C(O)CC1C2CC[C@]2(C)C(=O)CCC12` (stereo in doubt) [CVie216-salt, 2-(6beta-hydroxy-17-oxoandrostane-3-yl) acetic acid]?
A: diastolic function (in words) ([1]; IV infusion): ameliorated diastolic function; overall cardiac function, SV and CO (in words) ([1]; IV infusion): improvement; A late filling velocity of mitral inflow [1, 25]: 0.66 ± 0.17 m/s; CO cardiac output [1, 25]: 165.45 ± 30.9 mL/min; DT deceleration time of E wave [1, 25]: 49.72 ± 12.56 ms; DT/E mitral deceleration index [1, 25]: 56.52 ± 16.45 s2/m; E early filling velocity of mitral inflow [1, 25]: 0.90 ± 0.13 m/s; E/A index of LV function [1, 25]: 1.42 ± 0.28; E/DT deceleration slope [1, 25]: 19.76 ± 8.27 m/s2; E/e′ index of LV filling pressure [1, 25]: 39.08 ± 5.04; FS fractional shortening [1, 25]: 56.29 ± 9.95%; HR heart rate [1, 25]: 221 ± 50 beat/min; SV stroke volume [1, 25]: 0.76 ± 0.12 ml/beat; a′ TDI late relaxation velocity [1, 25]: 25.85 ± 6.98 cm/s; e′ TDI early relaxation velocity [1, 25]: 23.1 ± 1.96 cm/s; s′ TDI contraction velocity [1, 25]: 22.47 ± 2.45 cm/s; A late filling velocity of mitral inflow [1, 26]: 0.68 ± 0.15 m/s; CO cardiac output [1, 26]: 181.82 ± 23.75 mL/min; DT deceleration time of E wave [1, 26]: 47.46 ± 10.17 ms; DT/E mitral deceleration index [1, 26]: 54.8 ± 12.84 s2/m; E early filling velocity of mitral inflow [1, 26]: 0.87 ± 0.09 m/s; E/A index of LV function [1, 26]: 1.34 ± 0.27; E/DT deceleration slope [1, 26]: 19.38 ± 5.39 m/s2; E/e′ index of LV filling pressure [1, 26]: significantly reduced; FS fractional shortening [1, 26]: 55.19 ± 7.32%; HR heart rate [1, 26]: 225 ± 50 beat/min; SV stroke volume [1, 26]: 0.83 ± 0.15 ml/beat; a′ TDI late relaxation velocity [1, 26]: 26.66 ± 6.94 cm/s; e′ TDI early relaxation velocity [1, 26]: 24.48 ± 2.1 cm/s; s′ TDI contraction velocity [1, 26]: 22.68 ± 3.18 cm/s; % inhib [2]: −1%; inhibition at 10 µM [3]: 1%; inhibition at 10 µM [4]: -2%; inhibition at 10 µM [5]: 2%; inhibition at 10 µM [6]: 7%; inhibition at 10 µM [7]: 2%; inhibition at 10 µM [8]: -1%; inhibition at 10 µM [9]: 5%; inhibition at 10 µM [10]: -2%; inhibition at 10 µM [11]: -6%; % inhib [12]: −20%; inhibition at 10 µM [13]: 0%; inhibition at 10 µM [14]: -6%; % inhib [15]: 1%; inhibition at 10 µM [16]: -20%; inhibition at 10 µM [17]: -6%; inhibition at 10 µM [18]: 0%; inhibition at 10 µM [19]: 11%; inhibition at 10 µM [20]: 0%; inhibition at 10 µM [21]: -10%; % inhib [22]: 12%; inhibition at 10 µM [23]: 2%; % inhib [24]: −5%
